Test results published in article PMC10253665, “Enhancing the Catalytic Activity of Thermo-Asparaginase from Thermococcus sibiricus by a Double Mesophilic-like Mutation in the Substrate-Binding Region” (International Journal of Molecular Sciences, 2023).
Values belong to the molecule of their own block, whether it stands above or below them.

Columns and labels:
[1] = biological target: T1, TsA (L-asparaginase from Thermococcus sibiricus) (Thermococcus sibiricus, UniProt C6A532); experiment: direct Nesslerization (ammonia release); assay type: biochemical; conditions: 90 °C, Tris-HCl 0.05 M pH 9.0 (b36 says same conditions as mutant)
T1 construct: gene TSIB_1676
T1 sequence (C6A532 entry or part of it): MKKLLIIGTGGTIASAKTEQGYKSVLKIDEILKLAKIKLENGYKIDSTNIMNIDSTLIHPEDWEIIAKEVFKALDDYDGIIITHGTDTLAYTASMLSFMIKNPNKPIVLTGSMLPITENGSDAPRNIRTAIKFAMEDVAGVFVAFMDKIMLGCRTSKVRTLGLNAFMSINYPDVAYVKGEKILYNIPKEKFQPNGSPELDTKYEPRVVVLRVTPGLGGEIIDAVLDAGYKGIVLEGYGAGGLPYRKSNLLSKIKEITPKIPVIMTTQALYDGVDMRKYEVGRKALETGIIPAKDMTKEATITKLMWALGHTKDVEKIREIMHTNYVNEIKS

[2] = substrate: NC(=O)C[C@H](N)C(=O)O; experiment: direct Nesslerization (ammonia release); assay type: biochemical, Thermococcus sibiricus; conditions: 90 °C, glycine-NaOH 0.01 M pH 9.3, printed substrate range 20-250 μM

Km [1]: 3000 µM
Molecule: NC(=O)C[C@H](N)C(=O)O [L-asparagine]

B1: TsA (L-asparaginase from Thermococcus sibiricus) (Thermococcus sibiricus MM 739; D54G/T56Q) (protein)
chain: MKKLLIIGTGGTIASAKTEQGYKSVLKIDEILKLAKIKLENGYKIDSTNIMNIGSQLIHPEDWEIIAKEVFKALDDYDGIIITHGTDTLAYTASMLSFMIKNPNKPIVLTGSMLPITENGSDAPRNIRTAIKFAMEDVAGVFVAFMDKIMLGCRTSKVRTLGLNAFMSINYPDVAYVKGEKILYNIPKEKFQPNGSPELDTKYEPRVVVLRVTPGLGGEIIDAVLDAGYKGIVLEGYGAGGLPYRKSNLLSKIKEITPKIPVIMTTQALYDGVDMRKYEVGRKALETGIIPAKDMTKEATITKLMWALGHTKDVEKIREIMHTNYVNEIKS
Km [2]: 6000 µM
